Experimental data: patent US20140350081A1, “INSECT G-COUPLED RECEPTORS USEFUL AS TARGETS FOR INSECTICIDES AND COMPOUNDS AND REAGENTS IDENTIFIED USING THE SAME” (priority 2011, published 2014)
Read-outs that look alike come from different tables or passages of the source.

Legend:
[1] = target: T1, AaDOP2 (Aedes aegypti, UniProt H6D5H2); assay: LOPAC1280 antagonist screen in HEK-CRELuc-Aadop2 cells; format: cell-based; details: 10 μM compound, 300 nM dopamine, quadruplicate
[2] = target: T1, AaDOP2; assay: cell-based
[3] = target: T2, Isdop2 (Ixodes scapularis, UniProt A0ACM8DGL0); assay: cell-based; details: read-out: % Inhibition (of response to dopamine), Isdop2 screen
[4] = target: T3, human D1 dopamine receptor (hD1) (Homo sapiens, UniProt P21728); assay: cAMP accumulation secondary assay, hD1-expressing cells; format: cell-based, H. sapiens
T3 construct: expressed in transfected cells

[5] = target: T1, AaDOP2
[6] = target: T4, Isdop1 (Ixodes scapularis, UniProt A0ACM8FJJ0); assay: cAMP accumulation confirmation assay, cells stably expressing Isdop1; format: cell-based
[7] = target: T2, Isdop2; assay: cAMP accumulation confirmation assay, cells stably expressing Isdop2; format: cell-based
[8] = system: Ae. aegypti L3 larvae; assay: whole plant or invertebrate; details: Aedes aegypti
[9] = system: Ae. aegypti L3 larvae; details: 400 μM, three independent experiments
[10] = system: adult male Blatella germanica; assay: Cockroach assay of Table 16 (title contact assay, text feeding assay); format: in vivo; details: 200 mM compound
Source text: (§1) A series of whole organism bioassays was developed to further evaluate the toxicity of chemistries to a range of agricultural, veterinary and public health pests and non-target insects (Tables 12 and 13). These assays are designed to rapidly explore the biological activity spectrum of chemistries as well as to facilitate initial investigations of the mode of action of insecticidal compounds. Briefly, assays were developed for the German cockroach (Blatella germanica, urban pest), termite (Reticulitermes flavipes; urban pest), lone star tick (Amblyomma americana; veterinary and public health pest), soybean aphid (Aphis glycines, agricultural pest) and honeybee (Apis mellifera; beneficial, non-target insect). The assays were designed to test the toxicity and speed of kill of multiple chemistries on contact. Each of these assays was performed as a single point dose experiment in triplicate using either topical application of compound to the ventral thorax ([…]; 50-80 μg effective dose depending on compound) as is the case for our cockroach and honeybee assays, or 10 second immersion in a solution of the compound diluted in water or DMSO:EtOH to a final concentration of 100 μM. The assays were conducted in 24-well plate format with mortality assessment following incubation at 22° C. as described above. Commercial insecticides were incorporated in these assays to provide a positive control and permit initial comparative analyses. Lead chemistries identified in our in vivo screen have been evaluated in the cockroach and termite assays.

[11] = system: adult Reticulitermes flavipes; assay: Termite immersion assay; format: in vivo; details: Reticulitermes flavipes, immersion, adult termite; for mortality at 100 µM: 100 µM compound (Fipronil 500 μM); for mortality at 100000 µM: 100 mM compound (Fipronil 500 μM)
Source text: A series of whole organism bioassays was developed to further evaluate the toxicity of chemistries to a range of agricultural, veterinary and public health pests and non-target insects (Tables 12 and 13). These assays are designed to rapidly explore the biological activity spectrum of chemistries as well as to facilitate initial investigations of the mode of action of insecticidal compounds. Briefly, assays were developed for the German cockroach (Blatella germanica, urban pest), termite (Reticulitermes flavipes; urban pest), lone star tick (Amblyomma americana; veterinary and public health pest), soybean aphid (Aphis glycines, agricultural pest) and honeybee (Apis mellifera; beneficial, non-target insect). The assays were designed to test the toxicity and speed of kill of multiple chemistries on contact. Each of these assays was performed as a single point dose experiment in triplicate using either topical application of compound to the ventral thorax (1 μl of a […] compound solution in 1:1 v:v DMSO:EtOH vehicle; 50-80 μg effective dose depending on compound) as is the case for our cockroach and honeybee assays, or 10 second immersion in a solution of the compound diluted in water or DMSO:[…] The assays were conducted in 24-well plate format with mortality assessment following incubation at 22° C. as described above. Commercial insecticides were incorporated in these assays to provide a positive control and permit initial comparative analyses. Lead chemistries identified in our in vivo screen have been evaluated in the cockroach and termite assays.

[12] = system: Ae. aegypti L3 larvae; assay: Ae. aegypti L3 concentration response and time course assays; format: in vivo, Aedes aegypti; details: Aedes aegypti
Protocol: Briefly, chemistries were diluted to appropriate concentration in water and added to the wells of 24-well plates containing 5 L3 stage Ae. aegypti larvae to achieve a final concentration of 400, 200, 100, 50 and 25 μM in 1 ml sterile RO water. Chemistries were tested in quadruplicate at each concentration. […] Results reported here represent a minimum of three independent CRC experiments (i.e., n=3).

[13] = target: T1, AaDOP2; assay: HTRF cAMP accumulation concentration response assay (Cisbio Dynamic 2); format: cell-based
[14] = system: Ae. aegypti larvae; assay: whole plant or invertebrate; format: in vivo; details: Aedes aegypti, read-out: average larval mortality
Protocol: Single dose-point and dose response in vivo mosquito bioassays were used to assess the toxicity of selected AaDop2 receptor antagonists identified in the chemical screen. Larvae of Ae. aegypti (Liverpool strain) were reared under standard laboratory conditions on a 12 hr day/night cycle at 75% RH and 28° C., and bioassays were conducted at room temperature (22-24° C.). Larvae were transferred from standard rearing trays into six-well tissue culture plates (Corning, Inc. Corning, N.Y.) using a small plastic pipette. Ten L4-stage larvae were included per well, each containing five ml of de-ionized water and an assigned drug concentration. Controls were conducted similarly but lacked a drug treatment. Bioassays employed a double-blind experimental design, and larval mortality was scored 24 hr following administration of drugs. Single dose-point assays were conducted using 400 μM drug and included three biological replicates each consisting of 100 larvae.

[15] = system: adult male Blatella germanica; assay: Cockroach contact assay (topical application); format: in vivo; details: 200 mM compound
Source text: as §1

[16] = target: T1, AaDOP2; details: single dose 10 μM, transient expression, n=3
[17] = target: T5, AaDOP1 (Aedes aegypti, UniProt H6D5H1); details: single dose 10 μM, transient expression, n=3
[18] = target: T5, AaDOP1; assay: CRELuc reporter dose-response in HEK293 cells stably expressing AaDOP1; format: cell-based; details: HEK293 cells stably expressing CRELuc reporter and AaDOP1
[19] = target: T2, Isdop2; assay: CRE-Luc reporter assay, HEK cells stably expressing Isdop2; format: cell-based
[20] = target: T4, Isdop1; assay: CRE-Luc reporter assay, HEK cells stably expressing Isdop1; format: cell-based
[21] = 48 h, read-out: Toxicity to Aedes aegypti larvae (mortality) 48 hours, 400 μM, L3 larvae, three independent experiments
[22] = 72 h, read-out: Toxicity to Aedes aegypti larvae (mortality) 72 hours, 400 μM, L3 larvae, three independent experiments

T1 sequence (H6D5H2 entry or part of it): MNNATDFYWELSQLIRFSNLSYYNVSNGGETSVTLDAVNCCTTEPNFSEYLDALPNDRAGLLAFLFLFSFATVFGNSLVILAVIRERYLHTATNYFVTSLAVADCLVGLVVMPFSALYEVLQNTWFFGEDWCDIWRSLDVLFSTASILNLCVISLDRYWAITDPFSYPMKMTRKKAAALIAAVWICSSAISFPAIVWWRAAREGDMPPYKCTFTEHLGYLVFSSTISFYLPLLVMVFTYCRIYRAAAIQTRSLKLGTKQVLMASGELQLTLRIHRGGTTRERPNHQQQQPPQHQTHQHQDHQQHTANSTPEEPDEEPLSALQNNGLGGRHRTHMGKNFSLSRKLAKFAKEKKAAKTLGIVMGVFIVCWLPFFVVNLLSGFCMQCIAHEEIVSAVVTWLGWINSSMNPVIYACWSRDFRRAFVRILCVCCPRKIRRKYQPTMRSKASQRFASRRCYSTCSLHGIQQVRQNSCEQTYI
T2 sequence (A0ACM8DGL0 entry or part of it): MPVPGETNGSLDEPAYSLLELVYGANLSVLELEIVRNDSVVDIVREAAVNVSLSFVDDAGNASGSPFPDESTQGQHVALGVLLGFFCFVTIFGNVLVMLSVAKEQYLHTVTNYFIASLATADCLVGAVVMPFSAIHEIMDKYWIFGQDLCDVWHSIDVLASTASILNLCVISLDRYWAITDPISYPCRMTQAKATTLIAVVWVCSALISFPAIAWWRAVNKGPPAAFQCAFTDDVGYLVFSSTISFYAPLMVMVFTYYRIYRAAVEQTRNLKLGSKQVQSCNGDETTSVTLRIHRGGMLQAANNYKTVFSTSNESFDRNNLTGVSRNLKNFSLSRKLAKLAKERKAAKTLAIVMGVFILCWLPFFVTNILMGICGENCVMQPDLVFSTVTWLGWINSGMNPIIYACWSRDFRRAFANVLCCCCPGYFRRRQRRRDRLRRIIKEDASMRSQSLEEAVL
T3 sequence (P21728 whole entry): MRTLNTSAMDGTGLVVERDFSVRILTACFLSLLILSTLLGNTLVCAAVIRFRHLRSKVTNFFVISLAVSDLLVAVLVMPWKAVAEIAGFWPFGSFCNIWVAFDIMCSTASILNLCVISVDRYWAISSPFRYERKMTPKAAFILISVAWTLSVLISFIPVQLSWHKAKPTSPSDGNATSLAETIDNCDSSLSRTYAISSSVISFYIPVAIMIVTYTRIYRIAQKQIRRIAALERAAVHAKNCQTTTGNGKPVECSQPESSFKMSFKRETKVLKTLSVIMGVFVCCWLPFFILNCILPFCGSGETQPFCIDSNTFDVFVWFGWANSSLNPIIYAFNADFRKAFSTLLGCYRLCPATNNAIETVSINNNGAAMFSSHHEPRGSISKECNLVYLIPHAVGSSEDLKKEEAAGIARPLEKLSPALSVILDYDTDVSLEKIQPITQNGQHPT
T5 sequence (H6D5H1 entry or part of it): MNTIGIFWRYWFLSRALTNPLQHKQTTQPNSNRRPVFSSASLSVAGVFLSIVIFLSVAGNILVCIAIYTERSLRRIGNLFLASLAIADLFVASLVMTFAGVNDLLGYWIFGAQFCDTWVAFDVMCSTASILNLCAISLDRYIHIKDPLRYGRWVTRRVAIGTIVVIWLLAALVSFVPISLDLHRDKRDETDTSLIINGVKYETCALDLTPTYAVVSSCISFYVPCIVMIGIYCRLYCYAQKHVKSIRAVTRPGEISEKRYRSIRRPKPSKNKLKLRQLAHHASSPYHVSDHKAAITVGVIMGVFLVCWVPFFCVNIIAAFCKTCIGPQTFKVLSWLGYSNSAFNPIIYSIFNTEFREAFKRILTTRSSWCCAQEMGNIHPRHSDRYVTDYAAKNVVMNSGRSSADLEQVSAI

Oc1ccc(C=Cc2cc(O)cc(O)c2)cc1 [Resveratrol]
% of the SCH23390 effect [1]: 89%
IC50 [2]: ≥ 10000 nM
inhibition at 10 µM [3]: 100%

CSc1ccc2c(c1)C(N1CCN(C)CC1)Cc1ccccc1S2 (stereo not shown) [Methiothepin, (1-methyl-4-(8-(methylthio)-10,11-dihydrodibenzo-[b,f]thiepin-10-yl)piperazines)]
IC50 [4]: 80 ± 11 nM
Relative fold selectivity for AaDOP2 vs. hD1 [5]: 5.7 fold
IC50 [6]: 950 nM
% of the SCH23390 effect [1]: 99%
IC50 [7]: 85 nM
IC50 [2]: 14 ± 5.1 nM
mortality at 400 µM ([8]; 0.5 h, read-out: percent mortality 0.5 hr, 400 uM, L3 larvae, value for this scoring time): 10%
mortality at 400 µM ([8]; 1 h, read-out: percent mortality 1 hr, 400 uM, L3 larvae, per scoring time): 0%
mortality at 400 µM ([8]; 2 h, read-out: percent mortality 2 hr, 400 uM, L3 larvae, per scoring time): 20%
mortality at 400 µM ([8]; 3 h, read-out: mortality within three hours, 400 μM, L3 larvae): > 70%
mortality at 400 µM ([8]; 3 h, read-out: percent mortality 3 hr, 400 uM, L3 larvae, per scoring time): 0%
mortality at 400 µM ([8]; 4 h, read-out: percent mortality 4 hr, 400 uM, L3 larvae, per scoring time): 0%
mortality at 400 µM ([8]; 24 h, read-out: percent mortality 24 hr, 400 uM, L3 larvae, per scoring time): 0%
mortality at 400 µM [8, 21]: 100%
mortality at 400 µM ([8]; 48 h, read-out: percent mortality 48 hr, 400 uM, L3 larvae, per scoring time): 0%
mortality at 400 µM ([8]; 72 h, read-out: Cumulative % Mortality (72 hrs), 400 uM, L3 larvae): 100%
mortality at 400 µM [8, 22]: 100%
mortality at 400 µM ([8]; 72 h, read-out: percent mortality 72 hr, 400 uM, L3 larvae, per scoring time): 0%
inhibition at 10 µM [3]: 100%
Toxicity to Aedes aegypti larvae (mortality) 24 hours [9]: 100%

CN(C)CCC=C1c2ccccc2CCc2ccccc21 [Amitriptyline, (3-(10,11-dihydro-5H-dibenzo[a,d][7]annulen-5-ylidene)-N,N-dimethylpropan-1-amine)]
% Mortality 24 hrs [10]: 3%
% Mortality 48 hrs [10]: 20%
% Mortality 72 hrs [10]: 23%
% Mortality 120 hrs [10]: 30%
IC50 ([4]; read-out: IC50 value (at 100 nM dopamine for hD1), 100 nM dopamine, direct cAMP accumulation): 470 ± 49 nM
Relative fold selectivity for AaDOP2 vs. hD1 ([5]; ratio of IC50 values hD1/AaDOP2): 36 fold
IC50 ([5]; read-out: Affinity (Aedesdop2), values equal the Table 3 IC50 values): 14 nM
IC50 [6]: 77000 nM
% of the SCH23390 effect [1]: 90%
IC50 [7]: 2900 nM
mortality at 100 µM ([11]; 24 h, read-out: % Mortality 24 hrs): 40%
mortality at 100000 µM ([11]; 48 h, read-out: % Mortality 48 hrs): 40%
mortality at 100000 µM ([11]; 72 h, read-out: % Mortality 72 hrs): 60%
mortality at 100000 µM ([11]; 120 h, read-out: % Mortality 120 hrs): 70%
mortality at 100 µM ([11]; 240 h, read-out: % Mortality 240 hrs): 70%
LC50 [12]: 78000 nM
mortality at 400 µM ([8]; 24 h, read-out: Toxicity to Aedes aegypti larvae (mortality) 24 hours, 400 μM, L3 larvae, three independent experiments): 63%
mortality at 400 µM [8, 21]: 87%
mortality at 400 µM [8, 22]: 93%
IC50 ([13]; AaDOP2 expressing cells in the presence of dopamine, No Inhibition = <10% inhibition at 3 μM test compound, read-out: IC50 ± S.E.M. (nM), HTRF cAMP assay): 6.5 ± 0.92 nM
IC50 ([13]; Avg IC50 (μM), in vitro Concentration Response Curve assay, n = 2, relative to control antagonist Amitriptyline): 7 nM
mortality at 400 µM ([14]; 400 μM, L4 larvae, 24 hours post-treatment): 93%
inhibition at 10 µM [3]: 87%
% Mortality 24 hrs [15]: 5%
% Mortality 48 hrs [15]: 20%
% Mortality 72 hrs [15]: 25%
% Mortality 120 hrs [15]: 30%
% Mortality 240 hrs [15]: 35%

NCCc1ccc(O)c(O)c1 [Dopamine]
increase of intracellular cAMP, AaDOP2 [16]: 48±14 fold
increase of intracellular cAMP, AaDOP1 [17]: 2.7±0.6 fold
EC50 [18]: 3.1 ± 1.1 nM
EC50 [19]: ~145 nM
EC50 [20]: ~31 nM

CN(C)CCC=C1c2ccccc2COc2ccccc21 (mixture of isomers) [Doxepin, ((Z)-3-(dibenzo[b,e]oxepin-11(6H)-ylidene)-N,N-dimethylpropan-1-amine)]
mortality at 400 µM ([14]; 24 h): 57%
inhibition at 10 µM [3]: 87%
